In patent US9150510B2, “Amino acid derivative” (NIPPON ZOKI PHARMACEUTICAL CO., LTD., priority 2008, dated 2015):
Where a name gives a salt, the structure may show the parent alone.

Tests used:
[1] = tested on: ddY-type mice; assay: Analgesic efficacy test (1): acetic acid writhing test (nociceptive pain model animal); type: in vivo; conditions: Mus musculus, 25 min, writhing number, male ddY mice, acetic acid i.p. 25 min after administration, mean ± standard error, read-out: Percent Suppression (%); for inhibition in vivo at 3 mg/kg: oral single dose 3 mg/kg; for inhibition in vivo at 100 mg/kg: oral single dose 100 mg/kg; for inhibition in vivo at 10 mg/kg: oral single dose 10 mg/kg
From the text: A compound of the present invention was orally administered to mice, to carry out an analgesic efficacy test according to acetic acid writhing test (nociceptive pain model animal). As an experimental animal, 4-week old male ddY-type mice were previously bred, and thereafter 8 mice per one group were used in the experiment. A solution or suspension prepared by dissolving or suspending a compound of the present invention in a 0.5% (w/v) aqueous CMC-Na solution was orally administered as a test substance in a single dose. While, to a control group, a 0.5% (w/v) aqueous CMC-Na solution was administered in the same manner. After 25 minutes from administration, the mice were intraperitoneally administered with a 0.7% (v/v) acetic acid/physiological saline at the dose of 10 mL/kg. From 5 minutes thereafter, writhing number in a 10-minute period was counted, and a suppressive rate for each individual (mean±standard error) was calculated by the following formula: […]
In the test for significance difference, Baltlett's test was carried out in the comparison between multiple groups of the group administered with test substance with the control group. In the case of homoscedasticity, Dunnett's multiple comparison test of parametrics, and in the case of heteroscedasticity, Dunnett's multiple comparison test of non-parametrics were used. In addition, in the test of dose dependency, Jockheere-Terpstra's test was used. In all cases, significance difference was considered to be found at P<0.05.

[2] = Test of blood kinetics in the rats; type: in vivo; conditions: rat, plasma, 2 mg/kg, fasted Wistar male rats, oral single dose of mixed solution of five compounds, each compound 2 mg/5 mL/kg, n=5, LC-MS; for AUC(0-inf): read-out: AUC0-∞ (area under the curve for concentration in blood, time 0 to infinite hours); for Cmax: read-out: Cmax (maximum concentration in plasma)
Description: Ten milligrams of a compound of the present invention was properly converted to a sodium salt with the same amount of sodium hydroxide, where necessary, and each was dissolved in 5 mL of water. Five compounds each among these aqueous solutions of the compounds of the present inventions were mixed, to prepare a mixed solution containing 0.4 mg/mL each of each compound. Six-week old Wistar SPF male rats that were fasted were orally administered with the mixed solution in a single dose using a gavage tube (each compound 2 mg/5 mL/kg, n=5). At time points of 0.25, 0.5, 1, 2, 4, and 8 hours after the administration, about 150 μL of blood was collected using a heparin-added capillary tube from veins of rat tails. The capillary tubes were centrifuged to collect the plasma. The plasma sample was deprotenized and the supernatant was diluted to prepare each of measurement sample solutions. The concentration of the compound of the present invention in each of measurement sample solutions was quantified using LC-MS, and Cmax (maximum concentration in plasma) and AUC (area under the curve for concentration in blood, time 0 to infinite (∞) hours) of the compounds of the present invention were calculated.

Row | Structure (SMILES) | AUC(0-inf) [2] | Cmax [2] | inhibition in vivo at 100 mg/kg [1] | inhibition in vivo at 10 mg/kg [1] | other results
1 | COc1ccc(C[C@H](NC(=O)C=Cc2cc(F)ccc2F)C(=O)O)cc1 [Compound 52, N-[3-(2,5-Difluorophenyl)acryloyl]-O^4-methyl-L-tyrosine] | 38200 ng·h/mL | 18000 ng/mL | – | – | inhibition in vivo at 3 mg/kg [1]: 50.9 ± 7.4%
2 | O=C(C=Cc1ccccc1F)N[C@@H](CO)C(=O)O [Compound 66, N-[3-(2-Fluorophenyl)acryloyl]-L-serine] | – | – | 56 ± 6.9% | – | –
3 | Cn1cc(C[C@H](NC(=O)C=Cc2ccc(C#N)cc2)C(=O)O)c2ccccc21 [Compound 36, N^α-[3-(4-Cyanophenyl)acryloyl]-1-methyl-L-tryptophan] | 11400 ng·h/mL | 2300 ng/mL | – | 49.7 ± 11.3% | –
4 | Cn1cc(C[C@H](NC(=O)C=Cc2c(F)cccc2F)C(=O)O)c2ccccc21 [Compound 31, N^α-[3-(2,6-Difluorophenyl)acryloyl]-1-methyl-L-tryptophan] | – | – | 31.5 ± 9.7% | – | –
5 | COc1ccc(C[C@H](NC(=O)C=Cc2ccc(O)cc2)C(=O)O)cc1 [Compound 44, N-[3-(4-Hydroxyphenyl)acryloyl]-O^4-methyl-L-tyrosine] | – | – | – | 48 ± 10.3% | –
6 | Cn1cc(C[C@H](NC(=O)C=Cc2cccc(C#N)c2)C(=O)O)c2ccccc21 [Compound 34, N^α-[3-(3-Cyanophenyl)acryloyl]-1-methyl-L-tryptophan] | 16500 ng·h/mL | 3200 ng/mL | – | 45.2 ± 6.3% | –
7 | Cn1cc(C[C@H](NC(=O)C=Cc2ccccc2O)C(=O)O)c2ccccc21 [Compound 26, N^α-[3-(2-Hydroxyphenyl)acryloyl]-1-methyl-L-tryptophan] | – | – | – | 30.5 ± 9.2% | –
8 | Cn1cc(C[C@H](NC(=O)C=Cc2ccccc2F)C(=O)O)c2ccccc21 [Compound 27, N^α-[3-(2-Fluorophenyl)acryloyl]-1-methyl-L-tryptophan] | 404000 ng·h/mL | 53300 ng/mL | – | – | inhibition in vivo at 3 mg/kg [1]: 45 ± 10%
9 | NCCCC[C@H](NC(=O)C=Cc1ccccc1F)C(=O)O [Compound 61, N^α-[3-(2-Fluorophenyl)acryloyl]-L-lysine hydrochloride] | – | – | 40.5 ± 7.8% | – | –
10 | O=Cn1cc(C[C@H](NC(=O)C=Cc2ccccc2F)C(=O)O)c2ccccc21 [Compound 68, N^α-[3-(2-Fluorophenyl)acryloyl]-1-formyl-L-tryptophan] | – | – | 55.4 ± 9.9% | – | –
11 | O=C(C=Cc1ccc(O)cc1)N[C@@H](Cc1c[nH]c2ccccc12)C(=O)O [Compound 7, N^α-[3-(4-Hydroxyphenyl)acryloyl]-L-tryptophan] | – | – | 37.3 ± 11.8% | – | –
12 | COc1ccc(C[C@H](NC(=O)C=Cc2cccc(C#N)c2)C(=O)O)cc1 [Compound 54, N-[3-(3-Cyanophenyl)acryloyl]-O^4-methyl-L-tyrosine] | – | – | 33.3 ± 10% | – | –
13 | O=C(C=Cc1ccccc1F)N[C@H](Cc1c[nH]c2ccccc12)C(=O)O [Compound 24, N^α-[3-(2-Fluorophenyl)acryloyl]-D-tryptophan] | 148000 ng·h/mL | 15000 ng/mL | – | 35.8 ± 9.3% | –
14 | Cn1cc(C[C@H](NC(=O)C=Cc2ccccc2C#N)C(=O)O)c2ccccc21 [Compound 30, N^α-[3-(2-Cyanophenyl)acryloyl]-1-methyl-L-tryptophan] | 13400 ng·h/mL | 3600 ng/mL | – | 35.8 ± 9.9% | –
15 | COc1ccc(C[C@H](NC(=O)C=Cc2ccccc2Cl)C(=O)O)cc1 [Compound 49, N-[3-(2-Chlorophenyl)acryloyl]-O^4-methyl-L-tyrosine] | – | – | 31.8 ± 7% | – | –
16 | COc1ccc(C[C@H](NC(=O)C=Cc2ccccc2F)C(=O)O)cc1 [Compound 40, N-[3-(2-Fluorophenyl)acryloyl]-O^4-methyl-L-tyrosine] | 61700 ng·h/mL | 48700 ng/mL | – | 42.3 ± 7% | –
17 | COc1ccc(C[C@H](NC(=O)C=Cc2cccc(F)c2)C(=O)O)cc1 [Compound 41, N-[3-(3-Fluorophenyl)acryloyl]-O^4-methyl-L-tyrosine] | – | – | 47.3 ± 15.7% | – | –
18 | Cn1cc(C[C@H](NC(=O)C=Cc2ccc(Oc3ccccc3)cc2)C(=O)O)c2ccccc21 [Compound 35, 1-Methyl-N^α-[3-(4-phenoxyphenyl)acryloyl]-L-tryptophan] | – | – | 55.2 ± 7.4% | – | –

Row | Structure (SMILES) | AUC(0-inf) [2] | Cmax [2] | inhibition in vivo at 100 mg/kg [1] | inhibition in vivo at 10 mg/kg [1] | other results
19 | COc1ccc(C[C@H](NC(=O)C=Cc2ccccc2C#N)C(=O)O)cc1 [Compound 46, N-[3-(2-Cyanophenyl)acryloyl]-O^4-methyl-L-tyrosine] | – | – | 38.7 ± 11.3% | – | –
20 | COc1ccc(C[C@H](NC(=O)C=Cc2ccccc2C(F)(F)F)C(=O)O)cc1 [Compound 47, O^4-Methyl-N-[3-(2-Trifluoromethylphenyl)acryloyl]-L-Tyrosine] | – | – | 36.2 ± 11.2% | – | –
21 | NC(=O)CC[C@H](NC(=O)C=Cc1ccccc1F)C(=O)O [Compound 65, N^α-[3-(2-Fluorophenyl)acryloyl]-L-glutamine] | – | – | 31.6 ± 13.1% | – | –
22 | COc1ccc(C[C@H](NC(=O)C=Cc2c(F)cccc2F)C(=O)O)cc1 [Compound 50, N-[3-(2,6-Difluorophenyl)acryloyl]-O^4-methyl-L-tyrosine] | – | – | 35.1 ± 15.4% | – | –
23 | COc1ccc(C[C@H](NC(=O)C=Cc2ccc(C#N)cc2)C(=O)O)cc1 [Compound 56, N-[3-(4-Cyanophenyl)acryloyl]-O^4-methyl-L-tyrosine] | 7000 ng·h/mL | 3500 ng/mL | 48.7 ± 10.1% | – | –
24 | O=C(C=Cc1cccc(O)c1)N[C@@H](Cc1c[nH]c2ccccc12)C(=O)O [Compound 6, N^α-[3-(3-Hydroxyphenyl)acryloyl]-L-tryptophan] | – | – | 39.2 ± 15.4% | – | –
25 | O=C(C=Cc1ccccc1F)N[C@@H](Cc1ccc(O)cc1)C(=O)O [Compound 62, N-[3-(2-Fluorophenyl)acryloyl]-L-tyrosine] | – | – | – | 39.2 ± 13.5% | –
26 | COc1ccc(C[C@H](NC(=O)C=Cc2cccc(O)c2)C(=O)O)cc1 [Compound 43, N-[3-(3-Hydroxyphenyl)acryloyl]-O^4-methyl-L-tyrosine] | – | – | – | 45.3 ± 10.8% | –
27 | O=C(C=Cc1ccccc1Cl)N[C@@H](Cc1c[nH]c2ccccc12)C(=O)O [Compound 12, N^α-[3-(2-Chlorophenyl)acryloyl]-L-tryptophan] | – | – | 34.9 ± 11.5% | – | –
28 | N#CC(=Cc1ccccc1)C(=O)N[C@@H](Cc1c[nH]c2ccccc12)C(=O)O [Compound 25, N^α-(2-Cyano-3-phenylacryloyl)-L-tryptophan] | 6800 ng·h/mL | 1500 ng/mL | – | 41.2 ± 11.1% | –
29 | COc1ccc(C[C@H](NC(=O)C=Cc2ccc(F)cc2F)C(=O)O)cc1 [Compound 51, N-[3-(2,4-Difluorophenyl)acryloyl]-O^4-Methyl-L-Tyrosine] | 116000 ng·h/mL | 33000 ng/mL | – | 42.2 ± 9.1% | –
30 | NCCC[C@H](NC(=O)C=Cc1ccccc1F)C(=O)O [Compound 63, N^α-[3-(2-Fluorophenyl)acryloyl]-L-ornithine hydrochloride] | – | – | – | 41.1 ± 7.8% | –
31 | COc1ccc(C[C@H](NC(=O)C=Cc2ccccc2OC)C(=O)O)cc1 [Compound 48, N-[3-(2-Methoxyphenyl)acryloyl]-O^4-methyl-L-tyrosine] | – | – | – | 43.2 ± 7.3% | –
32 | COc1ccc(C[C@H](NC(=O)C=Cc2ccc(F)cc2)C(=O)O)cc1 [Compound 42, N-[3-(4-Fluorophenyl)acryloyl]-O^4-methyl-L-tyrosine] | 57700 ng·h/mL | 18800 ng/mL | 52.7 ± 8.3% | – | –
33 | COc1ccc(C[C@H](NC(=O)C=Cc2cc(C(F)(F)F)cc(C(F)(F)F)c2)C(=O)O)cc1 [Compound 53, N-{3-[3,5-Bis(trifluoromethyl)phenyl]acryloyl}-O^4-methyl-L-tyrosine] | – | – | 32 ± 14.6% | – | –
34 | Cn1cc(C[C@H](NC(=O)C(C#N)=Cc2ccccc2F)C(=O)O)c2ccccc21 [Compound 37, N^α-[2-Cyano-3-(2-fluorophenyl)acryloyl]-1-methyl-L-tryptophan] | 6800 ng·h/mL | 1500 ng/mL | – | 37.9 ± 7.5% | –
35 | Cn1cc(C[C@H](NC(=O)C=Cc2ccc(F)cc2)C(=O)O)c2ccccc21 [Compound 28, N^α-[3-(4-Fluorophenyl)acryloyl]-1-methyl-L-tryptophan] | 183000 ng·h/mL | 37700 ng/mL | – | 56.5 ± 5.3% | –
